Data published in ChEMBL document CHEMBL1146114, “A new class of bradykinin 1 receptor antagonists containing the piperidine acetic acid tetralin core” (Bioorg Med Chem Lett, 2006).

Experiments:
[1] = target: T1, B1 bradykinin receptor (Homo sapiens, UniProt P46663); assay: Inhibition of human B1 receptor by calcium influx functional assay
T1 sequence (P46663 whole entry): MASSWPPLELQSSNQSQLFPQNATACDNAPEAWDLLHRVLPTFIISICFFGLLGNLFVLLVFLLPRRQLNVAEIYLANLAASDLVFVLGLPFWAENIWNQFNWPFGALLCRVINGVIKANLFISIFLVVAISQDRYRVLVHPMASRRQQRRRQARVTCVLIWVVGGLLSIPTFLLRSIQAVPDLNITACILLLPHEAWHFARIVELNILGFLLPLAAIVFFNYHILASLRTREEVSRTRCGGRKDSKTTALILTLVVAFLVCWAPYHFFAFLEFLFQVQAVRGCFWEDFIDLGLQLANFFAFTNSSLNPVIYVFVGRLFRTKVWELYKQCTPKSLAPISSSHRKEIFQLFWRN

[2] = target: T1, B1 bradykinin receptor; assay: Inhibition of human B1 receptor
[3] = Oral bioavailability in rat at 10 mg/kg, po; format: ADME, organism-based; settings: in vivo
[4] = Clearance in rat at 1 mg/kg, iv; format: ADME, organism-based; set-up: dose 1 mg/kg, route intravenous; settings: in vivo
[5] = Half life in rat at 1 mg/kg, iv; format: ADME, organism-based; set-up: dose 1 mg/kg, route intravenous; settings: in vivo
[6] = Volume of distribution in rat at 1 mg/kg, iv; format: ADME, organism-based; set-up: dose 1 mg/kg, route intravenous; settings: in vivo, read-out: Vss

Row | IC50 [1] [nM] | IC50 [2] [nM] | Compound | further results
1 | 42 | 13 | CC(C)CNCc1ccc2c(c1)CCC[C@H]2NC(=O)C[C@@H]1CCCCN1S(=O)(=O)c1cccc(C(F)(F)F)c1 | 
2 | 110 | 72 | CC(C)NCc1ccc2c(c1)CCC[C@H]2NC(=O)C[C@@H]1CCCCN1S(=O)(=O)c1cccc(C(F)(F)F)c1 | 
3 | 31 | 16 | O=C(C[C@@H]1CCCCN1S(=O)(=O)c1cccc(C(F)(F)F)c1)N[C@@H]1CCCc2cc(CNCC3CC3)ccc21 | 
4 | 210 | 360 | CC(C)(C)NCc1ccc2c(c1)CCC[C@H]2NC(=O)C[C@@H]1CCCCN1S(=O)(=O)c1ccc(C(F)(F)C(F)(F)F)cc1 | 
5 | 230 | 59 | CC(C)(C)CNCc1ccc2c(c1)CCC[C@H]2NC(=O)C[C@@H]1CCCCN1S(=O)(=O)c1cccc(C(F)(F)F)c1 | 
6 | 16 | 11 | Cc1ccc(S(=O)(=O)N2CCCC[C@H]2CC(=O)N[C@@H]2CCCc3cc(CNC(C)(C)C)ccc32)cc1C(F)(F)F | 
7 | 95 | 160 | CC(C)(C)NCc1ccc2c(c1)OCC[C@H]2NC(=O)C[C@@H]1CCCCN1S(=O)(=O)c1cccc(C(F)(F)F)c1 | 
8 | 46 | 21 | COCCNCc1ccc2c(c1)CCC[C@H]2NC(=O)C[C@@H]1CCCCN1S(=O)(=O)c1cccc(C(F)(F)F)c1 | 
9 | 4300 | 1100 | O=C(C[C@@H]1CCCCN1S(=O)(=O)c1cccc(C(F)(F)F)c1)N[C@@H]1CCCc2cc(CN3CCC3)ccc21 | 
10 | 54 | 58 | O=C(C[C@@H]1CCCCN1S(=O)(=O)c1cccc(C(F)(F)F)c1)N[C@@H]1CCCc2cc(CNC3CCC3)ccc21 | 
11 | 700 | 1900 | O=C(C[C@@H]1CCCCN1S(=O)(=O)c1cccc(C(F)(F)F)c1)N[C@@H]1CCCc2cc(CNCC(F)(F)F)ccc21 | 
12 | 73 | 120 | CC(C)(C)NCc1ccc2c(c1)CCC[C@H]2NC(=O)C[C@@H]1CCCCN1S(=O)(=O)c1cccc(Cl)c1 | 
13 | 160 | 62 | CN(C)Cc1ccc2c(c1)CCC[C@H]2NC(=O)C[C@@H]1CCCCN1S(=O)(=O)c1cccc(C(F)(F)F)c1 | 
14 | 47 | 48 | O=C(C[C@@H]1CCCCN1S(=O)(=O)c1cccc(C(F)(F)F)c1)N[C@@H]1CCCc2cc(CNC3CC3)ccc21 | 

The next lines start with the compound.

Row | Compound | IC50 [1] [nM] | IC50 [2] [nM] | further results
15 | Cc1ccc(S(=O)(=O)N2CCCC[C@H]2CC(=O)N[C@@H]2CCCc3cc(CNC(C)(C)C)ccc32)cc1 | 130 | 93 | 
16 | Cn1cnc(S(=O)(=O)N2CCCC[C@H]2CC(=O)N[C@@H]2CCCc3cc(CNC(C)(C)C)ccc32)c1 | > 40000 | > 100000 | 
17 | COc1ccc(S(=O)(=O)N2CCCC[C@H]2CC(=O)N[C@@H]2CCCc3cc(CNC(C)(C)C)ccc32)cc1 | 1400 | 780 | 
18 | CC(C)(C)NCc1ccc2c(c1)CCC[C@H]2NC(=O)C[C@@H]1CCCCN1S(=O)(=O)c1cccc(C(F)(F)F)c1 |  |  | bioavailability [3]: 19%; clearance [4]: 36.7 mL/min/kg; half-life [5]: 2 h; Vd [6]: 5.4 L/kg
19 | CC(C)(C)NCc1ccc2c(c1)CCC[C@H]2NC(=O)C[C@@H]1CCCCN1S(=O)(=O)c1csc2ccccc12 | 66 | 14 | 
20 | CC(C)(C)NCc1ccc2c(c1)CCC[C@H]2NC(=O)C[C@@H]1CCCCN1S(=O)(=O)c1ccc(Cl)cc1 | 810 | 560 | 
21 | CC(C)(C)NCc1ccc2c(c1)CCC[C@H]2NC(=O)C[C@@H]1CCCCN1S(=O)(=O)c1ccc(-c2ccccc2)cc1 | 540 | 690 | 
22 | CCCCOc1ccc(S(=O)(=O)N2CCCC[C@H]2CC(=O)N[C@@H]2CCCc3cc(CNC(C)(C)C)ccc32)cc1 | 590 | 1200 | 
23 | CC(C)(C)NCc1ccc2c(c1)CCC[C@H]2NC(=O)C[C@@H]1CCCCN1S(=O)(=O)c1ccccc1 | 2400 | 1700 | 
24 | CC(C)(C)NCc1ccc2c(c1)CCC[C@H]2NC(=O)C[C@@H]1CCCCN1S(=O)(=O)c1cccc2cnccc12 | 4300 | 610 | 
25 | Cc1ccc(S(=O)(=O)N2CCCC[C@H]2CC(=O)N[C@@H]2CCCc3cc(CNC(C)(C)C)ccc32)cc1Cl | 22 | 15 | 
26 | CC(C)(C)NCc1ccc2c(c1)CCC[C@H]2NC(=O)C[C@@H]1CCCCN1S(=O)(=O)c1cccc2cccnc12 | 440 | 220 | 
27 | CC(C)(C)NCc1ccc2c(c1)OCC[C@H]2NC(=O)C[C@@H]1CCCN1S(=O)(=O)c1cccc(C(F)(F)F)c1 | 960 | 1500 | 
28 | CC(C)(C)NCc1ccc2c(c1)CCC[C@H]2NC(=O)C[C@@H]1CCCCN1S(=O)(=O)c1cccc2nsnc12 | 180 | 150 | 
